Source: PubChem BioAssay (NCI)
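Interpolation was linear, between the two tested concentrations surrounding the appropriate level; five concentrations were tested over 48 hours in 96-well plates. GI50: concentration for 50% inhibition of growth. TGI denotes the concentration required for complete inhibition of growth.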

How the values were obtained:
Assay in all cases: inhibition of tumour cell growth, NCI panel, 48 h
[1] = test system: A549 NSCLC
[2] = test system: OVCAR-5 ovarian
[3] = test system: MDA-MB-231 breast
[4] = test system: SF-295 CNS
[5] = test system: RXF 393 renal
[6] = test system: TK-10 renal
[7] = test system: COLO 205 colon
[8] = test system: SK-MEL-5 melanoma
[9] = test system: SF-539 CNS
[10] = test system: MDA-MB-435
[11] = test system: DU-145 prostate
[12] = test system: CAKI-1 renal
[13] = test system: K-562 leukemia
[14] = test system: UO-31 renal
[15] = test system: A498 renal
[16] = test system: CCRF-CEM leukemia
[17] = test system: HOP-92 NSCLC
[18] = test system: BT-549 breast
[19] = test system: 786-0 renal
[20] = test system: HCT-15 colon
[21] = test system: NCI-H460 lung
[22] = test system: OVCAR-4 ovarian
[23] = test system: SR leukemia
[24] = test system: HS 578T breast
[25] = test system: M14 melanoma
[26] = test system: KM12 colon
[27] = test system: HCT-116 colon
[28] = test system: SN12C renal
[29] = test system: NCI-H522 lung
[30] = test system: IGROV1 ovarian
[31] = test system: NCI-H23 lung
[32] = test system: SK-MEL-28 melanoma
[33] = test system: OVCAR-3 ovarian
[34] = test system: NCI-H226 lung
[35] = test system: HOP-62 NSCLC
[36] = test system: HT29 colon
[37] = test system: SNB-75 CNS
[38] = test system: MCF7 breast
[39] = test system: MALME-3M melanoma
[40] = test system: PC-3 prostate
[41] = test system: MOLT-4 leukemia
[42] = test system: SW-620 colon
[43] = test system: UACC-257 melanoma
[44] = test system: MDA-MB-468 breast
[45] = test system: LOX IMVI melanoma
[46] = test system: U251 CNS
[47] = test system: SK-OV-3 ovarian
[48] = test system: HCC-2998 colon
[49] = test system: UACC-62 melanoma
[50] = test system: HL-60(TB) leukemia
[51] = test system: OVCAR-8 ovarian
[52] = test system: NCI/ADR-RES ovarian
[53] = test system: SF-268 CNS
[54] = test system: T-47D breast
[55] = test system: ACHN renal
[56] = test system: RPMI-8226 leukemia
[57] = test system: SNB-19 CNS
[58] = test system: EKVX NSCLC

## CC[C@@]1(O)C(=O)OCc2c1cc1n(c2=O)Cc2c-1nc1cc(F)c(C)c3c1c2[C@@H](N)CC3
[1]
  GI50: < 0.01 µM
  TGI: 0.456 µM
[2]
  GI50: < 0.0124 µM
  TGI: 0.801 µM
[3]
  GI50: 0.0285 µM
  TGI: 2.22 µM
[4]
  GI50: < 0.01 µM
  TGI: 0.0425 µM
[5]
  GI50: < 0.01 µM
  TGI: < 0.0135 µM
[6]
  GI50: 0.0611 µM
  TGI: 3.18 µM
[7]
  GI50: 0.0393 µM
  TGI: 0.298 µM
[8]
  GI50: < 0.01 µM
  TGI: < 0.01 µM
[9]
  GI50: < 0.01 µM
  TGI: < 0.01 µM
[10]
  GI50: < 0.01 µM
  TGI: 0.625 µM
[11]
  GI50: < 0.01 µM
  TGI: > 100 µM
[12]
  GI50: < 0.01 µM
  TGI: 0.0741 µM
[13]
  GI50: < 0.01 µM
  TGI: > 100 µM
[14]
  GI50: < 0.01 µM
  TGI: 0.0481 µM
[15]
  GI50: < 0.0107 µM
  TGI: 0.187 µM
[16]
  GI50: < 0.01 µM
[17]
  GI50: < 0.01 µM
  TGI: 0.192 µM
[18]
  GI50: < 0.01 µM
  TGI: 0.111 µM
[19]
  GI50: < 0.01 µM
  TGI: < 0.037 µM
[20]
  GI50: 0.0146 µM
  TGI: 4.89 µM
[21]
  GI50: < 0.01 µM
  TGI: 0.434 µM
[22]
  GI50: 0.0325 µM
  TGI: > 100 µM
[23]
  GI50: < 0.01 µM
  TGI: > 100 µM
[24]
  GI50: 0.221 µM
  TGI: > 100 µM
[25]
  GI50: < 0.01 µM
  TGI: 0.0279 µM
[26]
  GI50: 0.0184 µM
  TGI: > 100 µM
[27]
  GI50: < 0.01 µM
  TGI: 11.5 µM
[28]
  GI50: < 0.01 µM
  TGI: 0.145 µM
[29]
  GI50: < 0.01 µM
  TGI: 0.0379 µM
[30]
  GI50: 0.0261 µM
  TGI: 1.15 µM
[31]
  GI50: < 0.01 µM
  TGI: < 0.01 µM
[32]
  GI50: 0.111 µM
  TGI: > 100 µM
[33]
  GI50: 0.0368 µM
  TGI: 0.635 µM
[34]
  GI50: < 0.01 µM
  TGI: < 0.0197 µM
[35]
  GI50: < 0.01 µM
  TGI: < 0.0494 µM
[36]
  GI50: < 0.01 µM
  TGI: 1.04 µM
[37]
  GI50: < 0.01 µM
  TGI: 0.175 µM
[38]
  GI50: < 0.01 µM
  TGI: > 100 µM
[39]
  GI50: 0.011 µM
  TGI: 0.247 µM
[40]
  GI50: 0.0206 µM
  TGI: > 100 µM
[41]
  GI50: < 0.01 µM
[42]
  GI50: < 0.01 µM
  TGI: 13.1 µM
[43]
  GI50: 0.0103 µM
  TGI: 0.166 µM
[44]
  GI50: < 0.01 µM
  TGI: < 0.01 µM
[45]
  GI50: < 0.01 µM
  TGI: 0.0101 µM
[46]
  GI50: < 0.01 µM
  TGI: 0.102 µM
[47]
  GI50: < 0.01 µM
  TGI: 0.135 µM
[48]
  GI50: 0.0129 µM
  TGI: 0.129 µM
[49]
  GI50: < 0.01 µM
  TGI: 0.0146 µM
[50]
  GI50: < 0.01 µM
[51]
  GI50: < 0.01 µM
  TGI: 0.116 µM
[52]
  GI50: < 0.01 µM
  TGI: 0.0213 µM
[53]
  GI50: < 0.01 µM
  TGI: > 100 µM

## N#Cc1c(-c2ccc(F)cc2)nc(SCc2ccccc2)nc1N1CCNCC1
[1]
  GI50: 8.1 µM
  TGI: 21.5 µM
[2]
  GI50: 14.1 µM
  TGI: 27.6 µM
[4]
  GI50: 15.8 µM
  TGI: 30.1 µM
[5]
  GI50: 3.14 µM
  TGI: 14.8 µM
[6]
  GI50: 14.5 µM
  TGI: 28.4 µM
[7]
  GI50: 1.66 µM
  TGI: 3.17 µM
[8]
  GI50: 15.7 µM
  TGI: 29.2 µM
[9]
  GI50: 15.7 µM
  TGI: 29.4 µM
[10]
  GI50: 16.9 µM
  TGI: 31.5 µM
[11]
  GI50: 15 µM
  TGI: 29 µM
[12]
  GI50: 16 µM
  TGI: 29.7 µM
[13]
  GI50: 2.21 µM
  TGI: 5.42 µM
[54]
  GI50: 10.1 µM
  TGI: 24.8 µM
[15]
  GI50: 13.1 µM
  TGI: 27.3 µM
[16]
  GI50: 13.9 µM
  TGI: 31 µM
[17]
  GI50: 4.2 µM
  TGI: 18.1 µM
[18]
  GI50: 13 µM
  TGI: 26.4 µM
[19]
  GI50: 11 µM
  TGI: 25.4 µM
[20]
  GI50: 5.05 µM
  TGI: 17.5 µM
[21]
  GI50: 9.2 µM
  TGI: 22.9 µM
[22]
  GI50: 15.7 µM
  TGI: 34.2 µM
[23]
  GI50: 1.92 µM
  TGI: 4.61 µM
[24]
  GI50: 14.1 µM
  TGI: 32 µM
[25]
  GI50: 12 µM
  TGI: 24.8 µM
[26]
  GI50: 17.1 µM
  TGI: 32.8 µM
[27]
  GI50: 3.51 µM
  TGI: 11.6 µM
[28]
  GI50: 13.8 µM
  TGI: 27.2 µM
[29]
  GI50: 11.3 µM
  TGI: 25.1 µM
[30]
  GI50: 14.7 µM
  TGI: 28.9 µM
[31]
  GI50: 15.1 µM
  TGI: 29.3 µM
[32]
  GI50: 16.3 µM
  TGI: 30.3 µM
[33]
  GI50: 14.3 µM
  TGI: 29.1 µM
[34]
  GI50: 13.8 µM
  TGI: 33.4 µM
[35]
  GI50: 13.2 µM
  TGI: 28.1 µM
[55]
  GI50: 14 µM
  TGI: 27.5 µM
[36]
  GI50: 3.3 µM
  TGI: 10.5 µM
[56]
  GI50: 3.99 µM
  TGI: 17.5 µM
[38]
  GI50: 3.94 µM
  TGI: 15.3 µM
[39]
  GI50: 14.1 µM
  TGI: 28.2 µM
[40]
  GI50: 11.8 µM
  TGI: 25.8 µM
[41]
  GI50: 7.07 µM
  TGI: 21.2 µM
[42]
  GI50: 3.38 µM
  TGI: 13.1 µM
[43]
  GI50: 13.1 µM
  TGI: 26.2 µM
[44]
  GI50: 6.71 µM
  TGI: 21.3 µM
[57]
  GI50: 14.2 µM
  TGI: 29.3 µM
[45]
  GI50: 1.71 µM
  TGI: 3.33 µM
[46]
  GI50: 4.36 µM
  TGI: 16.1 µM
[47]
  GI50: 16 µM
  TGI: 29.5 µM
[48]
  GI50: 1.76 µM
  TGI: 3.22 µM
[49]
  GI50: 14.4 µM
  TGI: 28.2 µM
[50]
  GI50: 4.5 µM
  TGI: 17.3 µM
[58]
  GI50: 12 µM
  TGI: 24.8 µM
[51]
  GI50: 6.21 µM
  TGI: 21.8 µM
[52]
  GI50: 11.7 µM
  TGI: 27.4 µM
[53]
  GI50: 12.9 µM
  TGI: 29.1 µM
